Reference: patent US20120283293A1, “Methods of neuroprotection involving Prostaglandin E2 EP4 (PGE2 EP4) receptor activation” (The Board of Trustees of the Leland Stanford Junior …, priority 2011, published 2012)

How the values were obtained:
[1] = tested on: PKA activity in BV-2 cells; test: cAMP dependent protein kinase A (PKA) activity assay in BV-2 cells; format: cell-based, murine; settings: AE1-329 100 nM alone or with LPS 100 ng/ml
Experimental: PKA activity was determined using the PKA kinase activity assay kit (Assay designs, Ann Arbor, Mich.). Cells were harvested 3 minutes after stimulation, and ELISA was carried out according to the manufacturer's instructions. Kinase activity was calculated as (sample absorbance—blank absorbance)/μg protein and normalized to the average value of vehicle.
Downstream signaling events for EP4, a […] receptor, were investigated in LPS treated BV-2 cells (see FIG. 3). […] The increase in PKA activity from EP4 receptor signaling was blocked with the PKA inhibitor H89 at doses of 5 μM and 10 μM (FIG. 3B).

[2] = tested on: hippocampus of LPS-treated mice; test: LPS-induced hippocampal pro-inflammatory gene response in mice (qPCR, microglial morphology); format: in vivo, mouse
Experimental: The murine in vivo studies were conducted in accordance with the National Institutes of Health guidelines for the use of experimental animals and protocols were approved by the Institutional Animal Care and Use Committee. C57B6 EP4 floxed mice (Schneider et al., 2004) were kindly provided by Drs. Richard and Matthew Breyer (Vanderbilt University School of Medicine, Nashville, Tenn.), and C57B6 Cd11bCre mice (Boillee et al., 2006) were kindly provided by Dr. G. Kollias (Alexander Fleming Biomedical Sciences Research Center, Vari, Greece) and Dr. Donald Cleveland (UCSD, San Diego, Calif.). All mice were housed in an environment controlled for lighting (12 hour light/dark cycle), temperature, and humidity, with food and water available ad libitum. Cd11bCre:EP4f/f and Cd11bCre:EP4+/+ mice were generated by serial crosses of C57B6 Cd11bCre and EP4f/f and EP4+/+ lines. Male Cd11bCre: EP4f/f and Cd11bCre: EP4+/+ mice were treated with either saline or LPS (5 mg/kg intraperitoneally: n=5-8 per group, 13 months of age). 24 hours after injection, mice were euthanized and brain tissue was harvested and frozen at −80° C. For pharmacological experiments, C57B6 male mice (Jackson Laboratories, Bar Harbor, Me.; n=7 or 8 per group) received an injection of saline or LPS (5 mg/kg, i.p.+/−vehicle or AE1-329 ([…]) (Qin et al., 2007; Nagamatsu et al., 2006). Mice were euthanized 6 hours later, and brain tissue was harvested and frozen at −80° C. For collection of plasma, C57B6 male mice (n=5 per group) received an injection of saline or LPS (5 mg/kg, i.p.)+/−AE1-329 ([…] s.c.) or vehicle. Mice were deeply anesthetized with isoflurane at 3 h and blood was collected in a 1-ml syringe pre-coated with EDTA (250 mM) and placed in EDTA coated tubes. […]
qPCR was carried out as previously described (Liang et al., 2008). […] The mRNA level for each target gene was quantified by SYBR Green-based qPCR using the QuantiTect SYBR Green PCR kit (Qiagen). […] Quantification was performed using the standard curve method. […]

[3] = mice, LPS 5 mg/kg i.p., AE1-329 300 μg/kg s.c., 6 hours

COCc1ccccc1CC[C@H](O)/C=C/[C@H]1[C@H](O)CC(=O)[C@@H]1SCCCSCC(=O)O [AE1-329]
PKA activity [1]: significantly increased | LPS-induced COX-2, iNOS, TNF-α, IL-6 and IL-1β mRNA levels in hippocampus [2, 3]: significantly attenuated | hippocampal expression of NADPH oxidase subunits gp91phox, p67phox and p47phox [2, 3]: trend toward decreased expression | microglial morphological changes in response to LPS (Iba1 staining) ([2]; mouse hippocampal CA1, 6 hours after LPS + AE1-329): modestly decreased
